Read-outs that look alike come from different tables or passages of the source.
Assays:
5HT2B receptors = target: T1, 5HT2B receptors (Homo sapiens, UniProt P41595); assay: Human 5-HT2B functional high throughput screening assay in CHO-K1 cells (calcium flux); type: cell-based; details: for EC50: CHO-K1 cells, calcium flux
T1 construct: expressed in transfected cells; host or cells: CHO-K1 cells
Outline: (§1)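 Calcium flux in CHO-K1 cells overexpressing each receptor, using Ca4 dye with probenecid and FLIPR detection. Top concentration was 10 μM, diluted 1:10 across 6 points, and efficacy was scaled to serotonin.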

5HT2C receptors = target: T2, 5HT2C receptors (Homo sapiens, UniProt P28335); assay: Human 5-HT2C functional high throughput screening assay in CHO-K1 cells (calcium flux); type: cell-based; set-up: expressed in transfected cells; host or cells: CHO-K1 cells; details: for Emax: CHO-K1, 5-HT2C, maximum functional response as percentage relative to the effect of serotonin; for EC50: CHO-K1 cells, calcium flux
T2 sequence (P28335 33-458): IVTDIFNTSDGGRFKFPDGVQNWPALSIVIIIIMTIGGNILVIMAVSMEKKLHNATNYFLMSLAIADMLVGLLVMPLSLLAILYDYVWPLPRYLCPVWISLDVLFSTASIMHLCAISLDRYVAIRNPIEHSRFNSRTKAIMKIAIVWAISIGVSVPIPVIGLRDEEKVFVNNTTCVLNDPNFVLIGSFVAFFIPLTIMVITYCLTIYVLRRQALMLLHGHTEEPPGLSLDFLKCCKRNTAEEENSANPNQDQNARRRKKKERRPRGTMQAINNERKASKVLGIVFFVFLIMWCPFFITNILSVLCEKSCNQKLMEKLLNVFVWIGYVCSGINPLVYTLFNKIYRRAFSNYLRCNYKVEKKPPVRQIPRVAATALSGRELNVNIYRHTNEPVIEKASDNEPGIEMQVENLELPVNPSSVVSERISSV
Outline: as §1

[1] = 5-HT2B agonist activity, read-out: EC50
[2] = 5-HT2B, maximum functional response as percentage relative to the effect of serotonin
[3] = 5-HT2C agonist activity, read-out: EC50

T1 sequence (P41595 whole entry): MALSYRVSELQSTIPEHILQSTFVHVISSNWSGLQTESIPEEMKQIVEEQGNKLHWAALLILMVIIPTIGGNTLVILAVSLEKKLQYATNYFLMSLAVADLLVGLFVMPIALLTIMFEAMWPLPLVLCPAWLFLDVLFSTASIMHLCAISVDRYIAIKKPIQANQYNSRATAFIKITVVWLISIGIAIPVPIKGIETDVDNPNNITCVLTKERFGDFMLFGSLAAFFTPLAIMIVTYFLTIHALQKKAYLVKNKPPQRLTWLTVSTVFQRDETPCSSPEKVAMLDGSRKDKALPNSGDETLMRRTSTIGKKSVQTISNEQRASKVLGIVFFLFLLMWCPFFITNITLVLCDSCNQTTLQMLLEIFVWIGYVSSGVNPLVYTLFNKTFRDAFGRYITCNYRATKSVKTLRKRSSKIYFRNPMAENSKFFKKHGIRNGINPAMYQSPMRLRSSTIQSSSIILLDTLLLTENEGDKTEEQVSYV

| SMILES | EC50 (5HT2B receptors; [1]) [nM] | Emax (5HT2B receptors; [2]) | EC50 (5HT2C receptors; [3]) [nM] | Emax (5HT2C receptors; read-out: Emax) [%] | Emax (5HT2B receptors; CHO-K1, 5-HT2B, maximum functional response as percentage relative to the effect of serotonin, read-out: Emax) [%] | Emax (5HT2B receptors; CHO-K1) [%] | EC50 (5HT2B receptors; EC50, 5-HT2B agonist activity) [nM] | Emax (5HT2C receptors) [%] | EC50 (5HT2C receptors; EC50, 5-HT2C agonist activity) [nM] |
| --- | --- | --- | --- | --- | --- | --- | --- | --- | --- |
| CN1C[C@@H]2CNC[C@H]2c2ccc(F)cc2C1=O (relative stereo) [Example 224, Trans-8-fluoro-5-methyl-1,2,3,3a,4,5-hexahydrobenzo[c]pyrrolo[3,4-e]azepin-6(10bH)-one] | – | – | – | – | – | 45 | 6000 | > 120 | – |
| CN1C[C@H]2CNC(=O)c3cc(-c4ccccc4S(C)(=O)=O)ccc3[C@@H]2C1 (relative stereo) [Example 232, Trans-2-methyl-8-(2-(methylsulfonyl)phenyl)-1,2,3,3a,4,5-hexahydrobenzo[c]pyrrolo[3,4-e]azepin-6(10bH)-one] | > 10000 | inactive | 3000 | 30 | – | – | – | – | – |
| CC(=O)c1cccc(-c2ccc3c(c2)C(=O)NC[C@@H]2CNC[C@@H]32)c1.Cl (relative stereo) [Example 236, Trans-8-(3-acetylphenyl)-1,2,3,3a,4,5-hexahydrobenzo[c]pyrrolo[3,4-e]azepin-6(10bH)-one hydrochloride] | > 10000 | inactive | 0.3 | – | – | – | – | > 120 | – |
| CN1C[C@H]2CNC(=O)c3cc(C4=CCOCC4)ccc3[C@@H]2C1 (relative stereo) [Example 242, Trans-8-(3,6-dihydro-2H-pyran-4-yl)-2-methyl-1,2,3,3a,4,5-hexahydrobenzo[c]pyrrolo[3,4-e]azepin-6(10bH)-one] | > 10000 | inactive | 200 | > 120 | – | – | – | – | – |
| CN1C[C@H]2CNC(=O)c3cc(Oc4ccc(F)cc4)ccc3[C@@H]2C1 (relative stereo) [Example 243, Trans-8-(4-fluorophenoxy)-2-methyl-1,2,3,3a,4,5-hexahydrobenzo[c]pyrrolo[3,4-e]azepin-6(10bH)-one] | > 10000 | inactive | 60 | > 120 | – | – | – | – | – |
| CC(C)Cc1ccc2c(c1)C(=O)NC[C@@H]1CN(C)C[C@@H]21 (relative stereo) [Example 244, Trans-8-isobutyl-2-methyl-1,2,3,3a,4,5-hexahydrobenzo[e]pyrrolo[3,4-c]azepin-6(10bH)-one] | – | inactive | – | – | – | – | > 10000 | 80 | 100 |
| CC1(C)CCC(Oc2ccc3c(c2)C(=O)NC[C@@H]2CNC[C@@H]32)CC1 (relative stereo) [Example 246, Trans-8-(4,4-dimethylcyclohexyloxy)-1,2,3,3a,4,5-hexahydrobenzo[e]pyrrolo[3,4-c]azepin-6(10bH)-one] | – | inactive | – | – | – | – | > 10000 | 100 | 40 |
| CN1C[C@H]2CNC(=O)c3cc(-c4ccc5c(c4)C(=O)CC5)ccc3[C@@H]2C1 (relative stereo) [Example 251, Trans-2-methyl-8-(3-oxo-2,3-dihydro-1H-inden-5-yl)-1,2,3,3a,4,5-hexahydrobenzo[c]pyrrolo[3,4-e]azepin-6(10bH)-one] | > 10000 | inactive | 400 | > 120 | – | – | – | – | – |

Now from value to compound, other results behind:

| EC50 (5HT2B receptors; [1]) [nM] | Emax (5HT2B receptors; [2]) | EC50 (5HT2C receptors; [3]) [nM] | Emax (5HT2C receptors; read-out: Emax) [%] | Emax (5HT2B receptors; CHO-K1, 5-HT2B, maximum functional response as percentage relative to the effect of serotonin, read-out: Emax) [%] | SMILES | Emax (5HT2B receptors; CHO-K1) [%] | EC50 (5HT2B receptors; EC50, 5-HT2B agonist activity) [nM] | Emax (5HT2C receptors) [%] | EC50 (5HT2C receptors; EC50, 5-HT2C agonist activity) [nM] |
| --- | --- | --- | --- | --- | --- | --- | --- | --- | --- |
| > 10000 | inactive | 0.8 | > 120 | – | CS(=O)(=O)c1cccc(-c2ccc3c(c2)C(=O)NC[C@@H]2CNC[C@@H]32)c1 (relative stereo) [Example 227, Trans-8-(3-(methylsulfonyl)phenyl)-1,2,3,3a,4,5-hexahydrobenzo[c]pyrrolo[3,4-e]azepin-6(10bH)-one] | – | – | – | – |
| > 10000 | inactive | 80 | > 120 | – | CN(C)C(=O)c1cccc(-c2ccc3c(c2)C(=O)NC[C@@H]2CNC[C@@H]32)c1 (relative stereo) [Example 230, N,N-Dimethyl-3-(trans-6-oxo-1,2,3,3a,4,5,6,10b-octahydrobenzo[c]pyrrolo[3,4-e]azepin-8-yl)benzamide] | – | – | – | – |
| > 10000 | inactive | 900 | 105 | – | CS(=O)(=O)c1ccccc1-c1ccc2c(c1)C(=O)NC[C@@H]1CNC[C@@H]21 (relative stereo) [Example 231, Trans-8-(2-(methylsulfonyl)phenyl)-1,2,3,3a,4,5-hexahydrobenzo[c]pyrrolo[3,4-e]azepin-6(10bH)-one] | – | – | – | – |
| > 10000 | inactive | 3 | > 120 | – | CC(=O)c1cccc(-c2ccc3c(c2)C(=O)NC[C@@H]2CN(C)C[C@@H]32)c1 (relative stereo) [Example 237, Trans-8-(3-acetylphenyl)-2-methyl-1,2,3,3a,4,5-hexahydrobenzo[c]pyrrolo[3,4-e]azepin-6(10bH)-one] | – | – | – | – |
| > 10000 | inactive | 0.7 | > 120 | – | CC(O)c1cccc(-c2ccc3c(c2)C(=O)NC[C@@H]2CN(C)C[C@@H]32)c1 (relative stereo) [Example 238, Trans-8-(3-(1-hydroxyethyl)phenyl)-2-methyl-1,2,3,3a,4,5-hexahydrobenzo[c]pyrrolo[3,4-e]azepin-6(10bH)-one] | – | – | – | – |
| 2000 | – | 0.8 | > 120 | 20 | N#Cc1cccc(-c2ccc3c(c2)C(=O)NC[C@@H]2CNC[C@@H]32)c1 (relative stereo) [Example 239, 3-(Trans-6-oxo-1,2,3,3a,4,5,6,10b-octahydrobenzo[c]pyrrolo[3,4-e]azepin-8-yl)benzonitrile] | – | – | – | – |
| > 10000 | inactive | 10 | > 120 | – | CN1C[C@H]2CNC(=O)c3cc(-c4cccc(C#N)c4)ccc3[C@@H]2C1 (relative stereo) [Example 240, 3-(Trans-2-methyl-6-oxo-1,2,3,3a,4,5,6,10b-octahydrobenzo[c]pyrrolo[3,4-e]azepin-8-yl)benzonitrile] | – | – | – | – |
| > 10000 | inactive | 7 | > 120 | – | O=C1NC[C@@H]2CNC[C@H]2c2ccc(C3=CCOCC3)cc21 (relative stereo) [Example 241, Trans-8-(3,6-dihydro-2H-pyran-4-yl)-1,2,3,3a,4,5-hexahydrobenzo[c]pyrrolo[3,4-e]azepin-6(10bH)-one] | – | – | – | – |
| > 10000 | inactive | 8 | > 120 | – | O=C1CCc2ccc(-c3ccc4c(c3)C(=O)NC[C@@H]3CNC[C@@H]43)cc21 (relative stereo) [Example 247, Trans-8-(3-oxo-2,3-dihydro-1H-inden-5-yl)-1,2,3,3a,4,5-hexahydrobenzo[c]pyrrolo[3,4-e]azepin-6(10bH)-one] | – | – | – | – |
| > 10000 | inactive | 3 | 105 | – | CCS(=O)(=O)c1cccc(-c2ccc3c(c2)C(=O)NC[C@@H]2CNC[C@@H]32)c1 (relative stereo) [Example 250, Trans-8-(3-(ethylsulfonyl)phenyl)-1,2,3,3a,4,5-hexahydrobenzo[c]pyrrolo[3,4-e]azepin-6(10bH)-one] | – | – | – | – |
| > 10000 | inactive | 0.4 | > 120 | – | O=C1NC[C@@H]2CNC[C@H]2c2ccc(-c3cccc(CCO)c3)cc21 (relative stereo) [Example 252, Trans-8-(3-(2-hydroxyethyl)phenyl)-1,2,3,3a,4,5-hexahydrobenzo[c]pyrrolo[3,4-e]azepin-6(10bH)-one] | – | – | – | – |

Reference: patent US8846951B2 (AbbVie Inc., priority 2009, dated 2014)
